Among the data in US8088932B2, “Pentaaryldiamine-containing bismaleimide compound and method of producing the compound” (Industrial Technology Research Institute, priority 2008, dated 2012) are solubility values, retold here.

This data set in a line: physchem. The note with it: organic solvent or mixture, thermodynamic from solid.

As for `N#Cc1ccc(N(c2ccc(C#N)cc2)c2ccc(N(c3ccc(N4C(=O)C=CC4=O)cc3)c3ccc(N4C(=O)C=CC4=O)cc3)cc2)cc1` [Compound 6, N,N-bis(4-maleimidophenyl)-N′,N′-bis(4-cyanophenyl)-1,4-phenylenediamine], the solubility (Solubility in CHCl3) was greater than 1000 µg/mL; the solubility (Solubility in DMAc) is greater than 1000 µg/mL; the solubility (Solubility in DMF) is greater than 1000 µg/mL; the solubility (Solubility in DMSO) is greater than 1000 µg/mL; the solubility (Solubility in MeOH) is less than 1000 µg/mL; the solubility (Solubility in NMP) was greater than 1000 µg/mL. Besides, the solubility runs as follows: (Solubility in THF) greater than 1000 µg/mL; (Solubility in m-Cresol) greater than 1000 µg/mL.

As usually defined, the solubility is the dissolved amount per volume that the medium holds.
